Experimental data published in patent US7985773B2 (American Sterilizer Company, priority 2004, dated 2011).
“And” between values parts separate entries of the source, which are not always exact repeats. Equal entries are not always repeated.

System: Serratia marcescens ATCC 14756
Test: Residual activity testing procedure on pigskin
Assay type: cell-based
Details: for Average Log Reduction: average of two series; for log reduction values and antimicrobial activity (in words): compositions of Table V, additive at 0.5 parts per 100 parts; for Log Value: log of colony forming units remaining; for Log Value / Log Reduction: single series; for antimicrobial activity (in words): additives of Table II in the Table I base; for antimicrobial activity (in words) / Average Series: FIG. 1; for Average Series: average log reduction of all four series
Description: The gram negative organism was grown for approximately 24 hours at 30° C. and then suspended in Butterfields Buffer to a count of 1×10^8. The pigskins were prepared according to the following standard of procedure. Pigskin hides are collected on the date of slaughter and processed on the same day by removing adipose tissue and thoroughly cleaning the hide. Both of these processes are accomplished by spraying both sides of the pig hide with a high pressure washer. No soap or detergents are used at any time during the processing of pig hides for laboratory use. After cleaning and de-fatting, pigskins are placed in water and frozen at the farm from which they were harvested. When required for laboratory testing, a representative procures the hides and thaws them for laboratory manipulation. In the laboratory, these hides are cut into manageable pieces with a scalpel and coarse hair removed with animal grooming clippers. Disposable razors are further employed to create a smooth surface without negatively affecting the skin surface. These pieces are then sterilized by Gamma irradiation and kept frozen until use in a study. Testing circles were then punched out of the pigskins and glued to a phenolic cap. The testing samples were placed in a 30° C. oven to equilibrate for at least 20 minutes. Each skin was treated with 150 μl of test product and rubbed for 30 seconds as a pair, skin to skin. The skins were allowed to dry for 30 seconds and then the test product was reapplied four times in the same manner. The skins were allowed to dry in a slightly opened hood for 15 minutes. After drying the skins were inoculated with 31 μl of the Serratia marcescens inoculum, as prepared above, rubbed for 15 seconds, and sampled after three minutes. To sample, a sterile 3.5 cm diameter cylinder is placed, lip side down, over the pigskin on the cap. Enough pressure is applied to the cylinder to prevent any leakage upon the addition of an appropriate volume of liquid sampling solution to the cylinder. The skin is then debrided, using a sterile policeman, for 30 seconds by rubbing the surface of the skin with the flat edge of the policeman with enough pressure to remove any microorganisms that might be on the surface. Two mL of the sampling solution are removed using a sterile pipet and are utilized for preparing serial dilutions and aerobic plate counts to establish the number of Colony Forming Units remaining.

[1] = additive at 0.5 parts by weight per 100 parts total composition in the Table I base, FIG. 2
[2] = additive at 0.5 parts by weight per 100 parts total composition in the Table I base
[3] = additive at the active % listed in Table III in the Table I base
[4] = additive at the active % listed in Table III in the Table I base, pigskin residual activity

CCCCCCCCCCCCCCCCCCCCCC[N+](C)(C)Cc1ccccc1.[Cl-] [Behenalkonium chloride, Behenalkonium Chloride]
Average Log Reduction [1]: 4.41
log reduction values and antimicrobial activity (in words): excellent log reduction values
Log Value [2]: 1.60 and 1.78
Log Reduction [2]: 4.50 and 4.32

CCCCCCCCCCCCCCCCCCCCCC[N+](C)(C)C.[Cl-] [Behentrimonium chloride]
Average Log Reduction [1]: 0.33
Log Value [2]: 5.78 and 5.76
Log Reduction [2]: 0.32 and 0.34

CCCCCCCCCCCCCCCCCCCCCC[N+](C)(C)C.COS(=O)(=O)[O-] [Behentrimonium methosulfate]
antimicrobial activity (in words): enhanced antimicrobial activity
Average Series [3]: 5.39
Average Log Reduction [1]: 5.25
log reduction values and antimicrobial activity (in words): excellent log reduction values

CC(C)(C)CC(C)(C)c1ccc(OCCOCC[N+](C)(C)Cc2ccccc2)cc1 [Benzethonium Chloride, Benzethonium chloride]
Average Series [3]: 0.17

CCCCCCCCCCCCCCCC[N+](C)(C)C.[Cl-] [Cetrimonium chloride]
Average Log Reduction [1]: 1.24
Log Value [2]: 4.87 and 4.85
Log Reduction [2]: 1.23 and 1.25

C[N+](C)(C)CCCNC(=O)C=Cc1ccccc1.[Cl-] [Cinnamidopropyl trimethylammonium chloride]
Average Log Reduction [1]: 0.05
Log Value [2]: 5.98 and 6.12
Log Reduction [2]: 0.12 and −0.02

CCCCCCCCCC(=O)OCC(O)CO (stereo not shown) [Glyceryl caprate]
Log Value [2]: 5.17 and 5.19

CCCCCCCCCCCC(=O)OCC(O)CO (stereo not shown) [Glyceryl monolaurate]
Average Series [3]: −0.21

CCCCCCCCCCCCCCCCCCCCCC(=O)NCCC[N+](C)(C)CCO.[Cl-] [Hydroxyethyl behenamidopropyldimonium chloride]
Average Log Reduction [1]: 0.63

COC(=O)c1ccc(O)cc1 [Methyl paraben]
Average Series [3]: 0.03

CCCCCCCC/C=C\CCCCCCCC[N+](C)(C)Cc1ccccc1.[Cl-] [Olealkonium chloride, Olealkonium Chloride]
Average Log Reduction [1]: 0.31
Log Value [2]: 5.76 and 5.81
Log Reduction [2]: 0.34 and 0.29

Cc1cc(O)cc(C)c1Cl [PCMX]
Average Series [3]: 0.16
Average Log Reduction [4]: 0.06 and 0.26

OCCOc1ccccc1 [Phenoxyethanol, Phenoxyethanol (ethylene glycol phenyl ether)]
antimicrobial activity (in words): enhanced antimicrobial activity
Average Series [3]: 3.39

CCCOC(=O)c1ccc(O)cc1 [Propyl paraben]
Average Series [3]: 0.40

CCCCCCCCCCCCCCCCCC[N+](C)(C)Cc1ccccc1.[Cl-] [Stearalkonium chloride]
Average Log Reduction [1]: 0.25
Log Value [2]: 5.93 and 5.77
Log Reduction [2]: 0.17 and 0.33

CC(O)C(=O)O.CCCCCCCCCCCCCCCCCC(=O)NCCCN(C)C [Stearamidopropyl dimethylamine lactate]
Log Value [2]: 6.22 and 6.05

Oc1cc(Cl)ccc1Oc1ccc(Cl)cc1Cl [Triclosan]
Average Series [3]: −0.04

Babbassuamidopropalkonium Chloride
Average Log Reduction [1]: 0.35
Log Value [2]: 5.82 and 5.68
Log Reduction [2]: 0.28 and 0.42

Cocoamidopropyl PG dimonium chloride
Average Series [3]: −0.04
Average Log Reduction [4]: −0.13 and 0.04

IPEG-3 Dioleylamidoethylmonium methosulfate
Average Log Reduction [1]: 0.27
Log Value [2]: 5.84 and 5.81
Log Reduction [2]: 0.26 and 0.29

Isostearyamidopropyl morpholine lactate
Average Log Reduction [1]: −0.09
Log Value [2]: 6.17 and 6.20
Log Reduction [2]: −0.07 and −0.10

Quaternium 26
Average Log Reduction [1]: −0.07
Log Value [2]: 6.20 and 6.13
Log Reduction [2]: −0.11 and −0.03

Sodium Coco PG-Dimonium chloride phosphate
Average Log Reduction [1]: 0.40
Log Value [2]: 5.69 and 5.71
Log Reduction [2]: 0.41 and 0.39
